# In paper PMC6934184, “Selective DNA-PKcs inhibition extends the therapeutic index of localized radiotherapy and chemotherapy” (The Journal of Clinical Investigation, 2019):
# Biological target: T1, MAP2K1 (MEK1) (Homo sapiens, UniProt Q02750)
# T1 construct: purchased Thermo Fisher Scientific (Life Technologies) SelectScreen
# Assay: SelectScreen Z'LYTE
# Format: biochemical
# Conditions: ATP 100 µM
# How it was run: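 NU5455 was profiled across the SelectScreen Broad panel of kinase activity and binding assays. Z'LYTE reactions such as CSF1R ran at apparent Km ATP, while the Adapta CAMK1 assay used ATP listed as 10. Values are given as percent.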
# T1 sequence (Q02750 whole entry): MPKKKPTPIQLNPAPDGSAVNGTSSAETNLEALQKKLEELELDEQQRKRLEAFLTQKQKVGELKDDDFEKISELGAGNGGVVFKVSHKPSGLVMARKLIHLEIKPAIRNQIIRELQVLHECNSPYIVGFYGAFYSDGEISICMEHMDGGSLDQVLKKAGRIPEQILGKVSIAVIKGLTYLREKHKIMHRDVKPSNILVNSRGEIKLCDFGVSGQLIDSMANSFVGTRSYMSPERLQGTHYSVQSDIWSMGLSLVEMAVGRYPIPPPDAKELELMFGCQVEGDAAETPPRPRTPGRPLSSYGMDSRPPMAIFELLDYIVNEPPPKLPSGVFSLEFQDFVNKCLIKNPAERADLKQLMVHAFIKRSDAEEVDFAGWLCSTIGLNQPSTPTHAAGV
smiles,measurement,value
CN(C(=O)CN1CCOCC1)c1ccc2sc3c(-c4cccc5c(=O)cc(N6CC7CCC(C6)O7)oc45)cccc3c2c1 [NU5455],inhibition at 1 µM,8.8%
